How the values were obtained:
[1] = tested on: N. meninigitidis (LNP24198) expressing luciferase (LuxABCDE); test: N. meningitidis luminescent strain growth assay (16 h); type: cell-based, Neisseria meningitidis
Procedure: N. meningitidis Luminescent Strain Growth Assay (16 h)
To perform the library screening (FIG. 1) or to compare the activity of the different boron-containing salts (FIG. 3), the amount of light produced after 16 h of growth for N. meningitidis luminescent strain was measured. Contrarily to optical density (OD) readings which can be misleading due to the absorbance of dead cells, this measurement is directly correlated to the number of live cells, as the half-life of the luciferase and its substrate are limited and that the emission of light is therefore not subsisting after the death of the cells. To perform this assay, N. meninigitidis (LNP24198) expressing luciferase (LuxABCDE) was grown overnight under the control of the constitutive promoter porBp in GCB agar media, and a cell-suspension corresponding to an OD600=0.01 was subsequently prepared. In parallel, fresh stock DMSO solutions of the compounds were prepared (100×, with final concentrations being indicated in the different figures) and 1.8 μL of the corresponding solutions were added per well of 96-well plates. In each well, 178.2 μL of bacterial suspension were subsequently added. Bacteria were allowed to grow during 16 h at 37° C. with 5% CO2. The emitted light was measured using a 96-well plate luminometer (PerkinElmer Wallac 1420 Victor^3) and results are expressed in relative light unit (RLU). All these assays were performed at least in triplicates.
To screen molecules for their antibacterial activity, a luminescent system was used, as previously described for other bacteria. A clinical isolate of N. meninigitidis (LNP24198) expressing luciferase (LuxABCDE) under the control of the constitutive promoter porBp was used, as similarly described, located in the intergenic region next to NMB1732. More than 2400 compounds from different origins were screened to identify candidates with the ability to inhibit the growth of N. meningitidis after 16 h at 37° C. […] It is noteworthy that stock solutions for all tested compounds were prepared in DMSO and that the final DMSO concentration of the tested solutions was kept at 1%, a concentration which has proven not to affect the growth of N. meningitidis (FIG. 1A). […] An investigation of the effect of the BPh4^− moiety was then pursued.
To exclude any salt-specific effect, the effect of several BPh4^− and BF4^− salts on the growth of N. meningitidis luminescent strain was tested. The growth of N. meningitidis was measured after a 16 h-exposure to different concentrations of various BPh4^− and BF4^− salts. From this assay, the MIC (minimum inhibitory concentration, the lowest concentration that prevents visible bacterial growth, <800 RLU) was calculated. All BPh4 salts tested (sodium, ammonium and potassium) were all highly toxic for N. meningitidis.
Several borate compounds were prepared and their ability to inhibit N. meningitidis growth was assessed using the luminescent system described at Example 2.

[2] = Toxicity of NaBPh4 in mice; type: in vivo, Balb/c mice; conditions: mice treated with NaBPh4 (IV or IP)
Procedure: (§1) The strain LNP 24198 of Neisseria meningitidis expressing the luxCDABE gene under the control of the porBp promoter was used. Three groups, with five seven-week-old Balb/c mice each, were infected with luminescent Neisseria meningitidis. For this, 200 μL of bacterial cultures at OD600nm of 0.1 (5×10^7 cells/mL) mixed with 150 μL of human transferrin (20 mg/mL) was injected in each mouse. Two hours later, one group was treated with 100 μL of NaBPh4 (20 μM) injected into the tail veins by intravenous injection (IV), and one group was treated with the same dose injected by intraperitoneal injection (IP). The remaining five were treated with 100 μL of DMSO as controls. NaBPh4 was initially prepared at 20 mM in DMSO before being diluted into PBS to reach a final concentration of 20 μM (with 0.1% DMSO). DMSO was diluted in PBS in the same manner to achieve 1:1000. To test a possible toxicity of NaBPh4, one group of 5 non-infected mice was treated with 100 μL of DMSO (IP) and two groups with 100 μL NaBPh4 (IV or IP). Luminescence was then measured, on the front and back of the mice, at different time points (0, 4, 8, 24 and 48 hours post-infection). The light signal was determined for each mouse using the ROI (Region Of Interest) tool of the IVIS Lumina Ill.
(§2) The effect of NaBPh4 administration in a murine model of N. meningitidis infection was assessed.

[3] = tested on: N. meningitidis (strain LNP 24198, luminescent); test: Mice infection with luminescent N. meningitidis; type: in vivo, Balb/c mice; conditions: IV or IP administration 2 h after infection, 24 h and 48 h post-infection, relative to vehicle (DMSO)
Procedure: as §1, §2

[4] = tested on: N. elongata; test: Bacterial survival assay (3 h), CFU counts; type: cell-based, Neisseria elongata
Procedure: (§3) Bacterial Survival Assay (3 h)
(§4) To measure bacterial survival (FIGS. 2 and 4), different bacteria were exposed to various concentrations of the compounds (as indicated) in their specific growth media (see the culture conditions above) for 3 h at 37° C. To perform this assay, all strains were grown overnight in their corresponding agar media. Cell-suspension corresponding to an OD600=0.05 were subsequently prepared. In parallel, fresh stock DMSO solutions of the compounds were prepared (100×, with final concentrations being indicated in the different figures) and 1.8 μL of the corresponding solutions were added per well of 96-well plates. In each well, 178.2 μL of bacterial suspension were subsequently added. Bacteria were allowed to grow during […] at 37° C. with 5% CO2. After incubation, serial dilutions (until 10^−6) were performed and 50 μL of each diluted solution were spread on agar plates. After an overnight incubation at 37° C. with/without 5% CO2, CFU were enumerated. All these assays were performed at least in triplicates.
(§5) To verify if the toxicity of BPh4^− is specific to the Neisseria genus, the percentage of survival of several Neisseria species was assessed after treatment with 50 μM of NaBPh4^− for 3 h (FIG. 4A). […]

[5] = tested on: N. sicca; test: Bacterial survival assay (3 h), CFU counts; type: cell-based, Neisseria sicca; conditions: 50 μM, compared with N. meningitidis and N. gonorrhoeae
Procedure: as §3, §4, §5

[6] = tested on: N. meningitidis; test: Bacterial survival assay (3 h), CFU counts; type: cell-based, Neisseria meningitidis
Procedure: as §3, §4
(§6) Therefore, the bactericidal activity was assessed for the 4 compounds harboring a BPh4^− identified from the initial screen described above (AnIII-7, AnIII-6, AnII-18, NaBPh4). N. meningitidis was treated with 50 μM of each compound and the % survival cells (compared with DMSO 1% control) was measured using serial dilutions and CFU counts. […] To verify if the bactericidal effect could be observed for the other pathogen of the Neisseria family, a clinical isolate of. N. gonorrhoeae (LNP16626 [3]) was also treated with 50 μM of the same compounds, respectively, using the same assay.
(§7) The MBC (minimum bactericidal concentration that kill >99.999%), the concentration necessary to completely abrogate bacterial survival after a 3 h exposure to NaBPh4, was next assessed.

[7] = tested on: N. gonorrhoeae (LNP16626); test: Bacterial survival assay (3 h), CFU counts; type: cell-based, Neisseria gonorrhoeae
Procedure: as §3, §4, §6, §7

[8] = tested on: N. lactamica; test: Bacterial survival assay (3 h), CFU counts; type: cell-based, Neisseria lactamica
Procedure: as §3, §4, §5

[9] = tested on: Citrobacter rodentium; test: Bacterial survival assay (3 h), CFU counts; type: cell-based; conditions: 50 μM, compared with N. meningitidis and N. gonorrhoeae
Procedure: as §3, §4
(§8) To verify if the toxicity of BPh4^− is specific to the Neisseria genus, the percentage of survival of several Neisseria species was assessed after treatment with 50 μM of NaBPh4^− for 3 h (FIG. 4A). […] Other Gram-negative species such as Yersinia enterocolitica and Citrobacter rodentium (order Enterobacterales) or Moraxella catarrhalis (order Pseudomonadeles), but also Gram-positive species such as Staphylococcus aureus and Actinobacteria with M. smegmatis, were also tested.

[10] = tested on: Moraxella catarrhalis; test: Bacterial survival assay (3 h), CFU counts; type: cell-based; conditions: 50 μM, compared with N. meningitidis and N. gonorrhoeae
Procedure: as §3, §4, §8

[11] = tested on: M. smegmatis; test: Bacterial survival assay (3 h), CFU counts; type: cell-based; conditions: 50 μM, compared with N. meningitidis and N. gonorrhoeae
Procedure: as §3, §4, §8

[12] = tested on: Staphylococcus aureus; test: Bacterial survival assay (3 h), CFU counts; type: cell-based; conditions: 50 μM, compared with N. meningitidis and N. gonorrhoeae
Procedure: as §3, §4, §8

[13] = tested on: Yersinia enterocolitica; test: Bacterial survival assay (3 h), CFU counts; type: cell-based; conditions: 50 μM, compared with N. meningitidis and N. gonorrhoeae
Procedure: as §3, §4, §8

[14] = 50 μM, 3 h, compared with N. meningitidis and N. gonorrhoeae

[Na+].c1ccc([B-](c2ccccc2)(c2ccccc2)c2ccccc2)cc1 [Compound 1, Sodium tetraphenylborate]
inhibition of the growth of N. meningitidis (library screening) ([1]; 100 μM, 16 h at 37° C., 1% DMSO): active
MIC ([1]; Neisseria meningitidis, 16 h): 15 µM
sign of toxicity in mice [2]: No apparent sign of toxicity
N. meningitidis bacterial load (luminescence) [3]: significantly reduces
survival of N. elongata [4, 14]: less sensitive
MBC (minimum bactericidal concentration that kill >99.999%) ([4]; N. elongata, 3 h exposure): higher than 200 μM
survival of N. sicca [5]: less sensitive
survival of N. meningitidis ([6]; 50 μM, 3 h, CFU counts vs DMSO 1% control): the detection of any live bacteria was not possible
MBC (minimum bactericidal concentration that kill >99.999%) ([6]; N. meningitidis, 3 h exposure): 18 µM
survival of N. gonorrhoeae ([7]; 50 μM, 3 h, CFU counts): no viable cells were detected
MBC (minimum bactericidal concentration that kill >99.999%) ([7]; N. gonorrhoeae, 3 h exposure): 7.5 µM
survival of N. lactamica [8, 14]: not as sensitive
MBC (minimum bactericidal concentration that kill >99.999%) ([8]; N. lactamica, 3 h exposure): higher than 200 μM
survival of Citrobacter rodentium [9]: significantly more resistant
survival of Moraxella catarrhalis [10]: significantly more resistant
survival of M. smegmatis [11]: significantly more resistant
survival of Staphylococcus aureus [12]: significantly more resistant
survival of Yersinia enterocolitica [13]: significantly more resistant
